Data from article PMC4870302, “In Vitro and In Vivo Comparison of Selected Ga-68 and Zr-89 Labelled Siderophores” (Molecular Imaging and Biology, 2015).

Tests used:
[1] = Protein binding in fresh human serum (size-exclusion MicroSpin G-50); assay type: in vitro ADME; conditions: for Protein binding (%) (mean, n = 2): 37 °C; for protein binding: after 24-h incubation period
Procedure: Protein binding studies were performed by incubating radiolabelled siderophore (1–2 μg/150 μl) in fresh human serum (850 μl) and in PBS (850 μl) (control) at 37 °C for various time points (30, 60 and 120 min for [^68Ga]siderophores and 1, 4 and 24 h for [^89Zr]siderophores). After incubation, 25 μl of the sample was separated by size-exclusion chromatography (MicroSpin™ G-50 Columns; Sephadex G-50 (GE Healthcare, Buckinghamshire, UK)) by centrifugation at 2000×g for 2 min. Protein binding of radiolabelled siderophores was determined by measuring the activity distributed between the column (non protein-bound) and the eluate (protein-bound) using the automatic gamma counter.

[2] = In vitro stability in 6 mM DTPA solution pH 7 (RP-HPLC); assay type: physicochemical; conditions: 6 mM DTPA pH 7, 37 °C
Procedure: The in vitro stability of radiolabelled siderophores (3–6 μg/100 μl) was tested in fresh human serum (300 μl) and a 6 mM solution of diethylenetriaminepentaacetic acid (DTPA) pH = 7 (100 μl) at 37 °C at several time points (30, […]). After incubation, human serum samples were precipitated with acetonitrile or ethanol, centrifuged (2200×g, 3 min) and the supernatant analyzed. Degradation of the radiolabelled siderophore complexes was evaluated by RP-HPLC. Samples of the DTPA solutions were directly injected onto the HPLC.

[3] = Partition coefficient determination (octanol/PBS pH 7.4); assay type: physicochemical
Procedure: Radiolabelled siderophore in 0.5 ml phosphate-buffered saline (PBS) pH = 7.4 was added to 0.5 ml octanol and the mixture was vigorously vortexed for 15 min. The aqueous and organic solvents were separated by centrifugation and 50 μl aliquots of both layers were collected and measured in the automatic gamma counter (WIZARD^2; PerkinElmer, Waltham, USA). Log P values were calculated from obtained data (mean of n = 6).

[4] = In vitro stability in fresh human serum (RP-HPLC); assay type: in vitro ADME; conditions: for Stability in human serum (%) (n = 1): 37 °C; for in vitro stability (in words): human serum and 6 mM DTPA, all examined media
Procedure: […] After incubation, human serum samples were precipitated with acetonitrile or ethanol, centrifuged (2200×g, 3 min) and the supernatant analyzed. Degradation of the radiolabelled siderophore complexes was evaluated by RP-HPLC. Samples of the DTPA solutions were directly injected onto the HPLC.

[5] = Ex vivo biodistribution in Balb/c mice; conditions: r.o. injection, 30 and 90 min p.i.
Procedure: Biodistibution of radiolabelled siderophores was studied in female Balb/c mice (8 weeks old). Ga-68 and Zr-89 labelled siderophores (1–2 MBq/mouse, corresponding to 0.1–0.2 μg of siderophore per mouse) were injected retro-orbitally (r.o.). Animals were sacrificed by cervical dislocation 30 and 90 min post-injection (p.i.). Organs and tissues (blood, spleen, pancreas, stomach, intestine, kidneys, liver, heart, lung, muscle and femur) were removed and weighed. The amount of radioactivity in the samples was measured in an automatic gamma counter. Results were expressed as percentage of injected dose per gram organ (%ID/g).

[6] = Small animal PET/CT imaging in Balb/c mice; assay type: in vivo; conditions: r.o. injection, 5-10 MBq
Procedure: PET and computed tomography (CT) images were acquired with an Albira PET/SPECT/CT small animal imaging system (Bruker Biospin Corporation, Woodbridge, CT, USA). Female Balb/c mice were r.o. injected with radiolabelled siderophores in a dose of 5–10 MBq corresponding to 0.5–1 μg of siderophore per mouse. Animals were anaesthetized with isoflurane (FORANE, Abbott Laboratories, Abbott Park, IL, USA) (2 % flow rate) and positioned prone head first in the Albira system before the start of imaging. Static PET/CT imaging was carried out 5, 30 and 90 min p.i. for both Ga-68 and Zr-89 labelled siderophores. Animals injected with [^89Zr]siderophores were also imaged 4 h p.i. A 5-min PET scan (axial FOV 148 mm) was performed, followed by a CT scan (axial FOV 65 mm, 45 kVp, 400 μA, at 600 projections). Dynamic imaging was carried out immediately after the injection of radiolabelled siderophore for 90 min (5 min PET scan per frame). Scans were reconstructed with the Albira software (Bruker Biospin Corporation, Woodbridge, CT, USA) using the maximum likelihood expectation maximization (MLEM) and filtered backprojection (FBP) algorithms. After reconstruction, acquired data was viewed and analyzed with PMOD software (PMOD Technologies Ltd., Zurich, Switzerland). 3D images were obtained using VolView software (Kitware, Clifton Park, NY, USA). […]

[7] = Protein binding in fresh human serum (size-exclusion MicroSpin G-50); assay type: in vitro ADME; conditions: 37 °C

| SMILES | Protein binding (%) (mean, n = 2) ([1]; incubation time 30 min) | Protein binding (%) (mean, n = 2) ([1]; incubation time 60 min) | Protein binding (%) (mean, n = 2) ([1]; incubation time 120 min) | Stability in DTPA solution (%) (n = 1) ([2]; incubation time 30 min) | Stability in DTPA solution (%) (n = 1) ([2]; incubation time 60 min) | Stability in DTPA solution (%) (n = 1) ([2]; incubation time 120 min) | Log P (mean ± SD, n = 6) ([3]; Ga-68 labelled) | Stability in human serum (%) (n = 1) ([4]; incubation time 30 min) | Stability in human serum (%) (n = 1) ([4]; incubation time 60 min) | Stability in human serum (%) (n = 1) ([4]; incubation time 120 min) | in vitro stability (in words) [4] | Stability in DTPA solution (%) (n = 1) ([2]; Incubation time (min) 1) | Stability in DTPA solution (%) (n = 1) ([2]; Incubation time (min) 4) | Stability in DTPA solution (%) (n = 1) ([2]; Incubation time (min) 24) | Log P (mean ± SD, n = 6) ([3]; Zr-89 labelled) | Stability in human serum (%) (n = 1) ([4]; Incubation time (min) 4) | Stability in human serum (%) (n = 1) ([4]; incubation time 24 h) | Protein binding (%) (mean, n = 2) [7]; 1 | Protein binding (%) (mean, n = 2) [7]; 24 | further results |
| --- | --- | --- | --- | --- | --- | --- | --- | --- | --- | --- | --- | --- | --- | --- | --- | --- | --- | --- | --- | --- |
| O=C1CCC(=O)N([O-])CCCCCNC(=O)CCC(=O)N([O-])CCCCCNC(=O)CCC(=O)N([O-])CCCCCN1.[68Ga+3] [[^68Ga]FOXE, [^68Ga]ferrioxamine E] | 0.27% | 0.24% | 0.53% | 94.3% | 93.8% | 93.2% | −1.65 ± 0.03 | 99.9% | 99.9% | 99.9% |  |  |  |  |  |  |  |  |  | ex vivo biodistribution (in words) [5]: slightly higher radioactivity values in gastrointestinal tract; kinetics and excretion route in PET imaging (in words) [6]: quickly eliminated mainly via the kidneys |
| CC(=O)NC1CCCN([O-])C(=O)C=C(C)CCOC(=O)C(NC(C)=O)CCCN([O-])C(=O)C=C(C)CCOC(=O)C(NC(C)=O)CCCN([O-])C(=O)C=C(C)CCOC1=O.[68Ga+3] (centres unmarked) [[^68Ga]TAFC, [^68Ga]triacetylfusarinine C] | 0.47% | 0.76% | 1.21% | 85.0% | 84.7% | 81.8% | −2.59 ± 0.15 | 99.9% | 99.9% | 99.9% |  |  |  |  |  |  |  |  |  |  |
| CC(=CC(=O)N([O-])CCCC1NC(=O)CNC(=O)C(CO)NC(=O)C(CO)NC(=O)C(CCCN([O-])C(=O)C=C(C)C(=O)O)NC(=O)C(CCCN([O-])C(=O)C=C(C)C(=O)O)NC1=O)C(=O)O.[89Zr+4] (centres unmarked) [[^89Zr]FCHA] |  |  |  |  |  |  |  |  |  |  | less stable as compared to its Ga-68 labelled counterpart | 68.70% | 65.27% | 54.22% | −3.28 ± 0.37 | 85.42% | 77.38% | 2.70% | 31.05% | protein binding [1]: 31.1% |
| O=C1CCC(=O)N([O-])CCCCCNC(=O)CCC(=O)N([O-])CCCCCNC(=O)CCC(=O)N([O-])CCCCCN1.[89Zr+4] [[^89Zr]FOXE, [^89Zr]ferrioxamine E] |  |  |  |  |  |  |  |  |  |  |  | 99.70% | 99.50% | 99.70% | −1.91 ± 0.04 | 99.70% | 98.34% | 3.27% | 16.59% | protein binding [1]: 16.6%; ex vivo biodistribution (in words) [5]: significantly higher radioactivity accumulation in the intestines and liver; kinetics and excretion route in PET imaging (in words) [6]: much slower kinetics and significant hepatobiliary elimination |

The next lines start with results.

| Protein binding (%) (mean, n = 2) ([1]; incubation time 30 min) | Protein binding (%) (mean, n = 2) ([1]; incubation time 60 min) | Protein binding (%) (mean, n = 2) ([1]; incubation time 120 min) | Stability in DTPA solution (%) (n = 1) ([2]; incubation time 30 min) | Stability in DTPA solution (%) (n = 1) ([2]; incubation time 60 min) | Stability in DTPA solution (%) (n = 1) ([2]; incubation time 120 min) | Log P (mean ± SD, n = 6) ([3]; Ga-68 labelled) | Stability in human serum (%) (n = 1) ([4]; incubation time 30 min) | Stability in human serum (%) (n = 1) ([4]; incubation time 60 min) | Stability in human serum (%) (n = 1) ([4]; incubation time 120 min) | in vitro stability (in words) [4] | Stability in DTPA solution (%) (n = 1) ([2]; Incubation time (min) 1) | Stability in DTPA solution (%) (n = 1) ([2]; Incubation time (min) 4) | Stability in DTPA solution (%) (n = 1) ([2]; Incubation time (min) 24) | Log P (mean ± SD, n = 6) ([3]; Zr-89 labelled) | Stability in human serum (%) (n = 1) ([4]; Incubation time (min) 4) | Stability in human serum (%) (n = 1) ([4]; incubation time 24 h) | Protein binding (%) (mean, n = 2) [7]; 1 | Protein binding (%) (mean, n = 2) [7]; 24 | SMILES | further results |
| --- | --- | --- | --- | --- | --- | --- | --- | --- | --- | --- | --- | --- | --- | --- | --- | --- | --- | --- | --- | --- |
| 7.67% | 10.29% | 10.83% | 60.1% | 54.5% | 52.9% | −3.56 ± 0.17 | 74.1% | 72.0% | 75.4% | pronounced in vitro instability |  |  |  |  |  |  |  |  | CC(=O)N([O-])CCCCCNC(=O)CCC(=O)N([O-])CCCCCNC(=O)CCC(=O)N([O-])CCCCCN.[68Ga+3] [[^68Ga]FOXB] |  |
|  |  |  |  |  |  |  |  |  |  | higher stability in all examined media | 91.56% | 90.39% | 87.10% | −3.01 ± 0.07 | 99.70% | 99.53% | 1.63% | 1.84% | CC(=O)N([O-])CCCCCNC(=O)CCC(=O)N([O-])CCCCCNC(=O)CCC(=O)N([O-])CCCCCN.[89Zr+4] [[^89Zr]FOXB] |  |
|  |  |  |  |  |  |  |  |  |  |  | 99.51% | 99.50% | 99.50% | −1.95 ± 0.03 | 98.72% | 98.50% | 0.99% | 1.37% | CC(=O)NC1CCCN([O-])C(=O)C=C(C)CCOC(=O)C(NC(C)=O)CCCN([O-])C(=O)C=C(C)CCOC(=O)C(NC(C)=O)CCCN([O-])C(=O)C=C(C)CCOC1=O.[89Zr+4] (centres unmarked) [[^89Zr]TAFC, [^89Zr]triacetylfusarinine C] |  |
